Values quoted from earlier work as cited in US20120251462A1, “Agent For Smoker Dehabituation” (Cognis IP Management GmbH, priority 2011, published 2012).

Test system: nACh receptors
Conditions: exceeds affinity of nicotine

Clc1ccc(C2CC3CCC2N3)cn1 (stereo not shown) [Epibatidin]
affinity for nACh receptors relative to nicotine: 120 fold
